Experimental data reported in ChEMBL document CHEMBL3217615, “Novel 3,5-bis(arylidiene)-4-piperidone based monocarbonyl analogs of curcumin: anticancer activity evaluation and mode of action study” (2014).

Columns and labels:
Assay type in all cases: functional
SN12C = assay: Growth inhibition of human SN12C cells after 48 hrs by sulforhodamine B assay
SK-OV-3 = assay: Growth inhibition of human SKOV3 cells assessed as cell growth at 10^-4 M after 48 hrs by sulforhodamine B assay; details: SK-OV-3, 48 h, read-out: Activity
NCI-H23 = assay: Growth inhibition of human NCI-H23 cells assessed as cell growth at 10^-7 M after 48 hrs by sulforhodamine B assay; details: NCI-H23, 48 h, read-out: Activity
SW-620 = assay: Growth inhibition of human SW620 cells assessed as cell growth at 10^-7 M after 48 hrs by sulforhodamine B assay; details: SW-620, 48 h, read-out: Activity
[1] = Growth inhibition of human NCI-ADR-RES cells after 48 hrs by sulforhodamine B assay
U-251 = assay: Growth inhibition of human U251 cells assessed as cell growth at 10^-7 M after 48 hrs by sulforhodamine B assay; details: U-251, 48 h, read-out: Activity
[2] = Growth inhibition of human OVCAR8 cells after 48 hrs by sulforhodamine B assay; details: OVCAR-8, 48 h
HOP-62 = assay: Growth inhibition of human HOP62 cells after 48 hrs by sulforhodamine B assay; details: HOP-62, 48 h
786-0 = assay: Growth inhibition of human 786-0 cells assessed as cell growth at 10^-7 M after 48 hrs by sulforhodamine B assay; details: 786-0, 48 h, read-out: Activity
HL-60(TB) [3] = assay: Growth inhibition of human HL-60(TB) cells assessed as cell growth at 10^-8 M after 48 hrs by sulforhodamine B assay; details: HL-60, 48 h
M14 = assay: Growth inhibition of human M14 cells assessed as cell growth at 10^-4 M after 48 hrs by sulforhodamine B assay; details: M14, 48 h, read-out: Activity
[4] = Growth inhibition of human NCI-ADR-RES cells assessed as cell growth at 10^-8 M after 48 hrs by sulforhodamine B assay
[5] = Growth inhibition of human OVCAR5 cells assessed as cell growth at 10^-4 M after 48 hrs by sulforhodamine B assay; details: OVCAR-5, 48 h, read-out: Activity
[6] = Growth inhibition of human NCI-ADR-RES cells assessed as cell growth at 10^-6 M after 48 hrs by sulforhodamine B assay; details: read-out: Activity
SK-MEL-5 = assay: Growth inhibition of human SK-MEL-5 cells assessed as cell growth at 10^-8 M after 48 hrs by sulforhodamine B assay; details: SK-MEL-5, 48 h
[7] = Growth inhibition of human MOLT4 cells assessed as cell growth at 10^-4 M after 48 hrs by sulforhodamine B assay; details: MOLT-4, 48 h, read-out: Activity
[8] = Growth inhibition of human UACC257 cells assessed as cell growth at 10^-6 M after 48 hrs by sulforhodamine B assay; details: UACC-257, 48 h, read-out: Activity
HCT-116 = assay: Growth inhibition of human HCT116 cells after 48 hrs by sulforhodamine B assay; details: HCT-116, 48 h
HL-60(TB) [9] = assay: Growth inhibition of human HL-60(TB) cells assessed as cell growth at 10^-6 M after 48 hrs by sulforhodamine B assay; details: HL-60, 48 h, read-out: Activity
SNB-75 = assay: Growth inhibition of human SNB75 cells assessed as cell growth at 10^-4 M after 48 hrs by sulforhodamine B assay; details: SNB-75, 48 h, read-out: Activity
RPMI-8226 = assay: Growth inhibition of human RPMI8226 cells after 48 hrs by sulforhodamine B assay; details: RPMI-8226, 48 h
DU-145 = assay: Growth inhibition of human DU145 cells after 48 hrs by sulforhodamine B assay; details: DU-145, 48 h
A549 = assay: Growth inhibition of human A549/ATCC cells assessed as cell growth at 10^-8 M after 48 hrs by sulforhodamine B assay; details: A549, 48 h
ACHN = assay: Growth inhibition of human ACHN cells assessed as cell growth at 10^-4 M after 48 hrs by sulforhodamine B assay; details: read-out: Activity
NCI-H322M = assay: Growth inhibition of human NCI-H322M cells after 48 hrs by sulforhodamine B assay
[10] = Growth inhibition of human BT549 cells after 48 hrs by sulforhodamine B assay; details: BT-549, 48 h
[11] = Growth inhibition of human HCT15 cells assessed as cell growth at 10^-7 M after 48 hrs by sulforhodamine B assay; details: HCT-15, 48 h, read-out: Activity
[12] = Growth inhibition of human OVCAR5 cells assessed as cell growth at 10^-7 M after 48 hrs by sulforhodamine B assay; details: OVCAR-5, 48 h, read-out: Activity
MCF7 = assay: Growth inhibition of human MCF7 cells after 48 hrs by sulforhodamine B assay; details: MCF7, 48 h
[13] = Growth inhibition of human RXF393 cells after 48 hrs by sulforhodamine B assay; details: RXF 393, 48 h
[14] = Growth inhibition of human SF295 cells assessed as cell growth at 10^-8 M after 48 hrs by sulforhodamine B assay; details: SF-295, 48 h
[15] = Growth inhibition of human UO31 cells assessed as cell growth at 10^-7 M after 48 hrs by sulforhodamine B assay; details: UO-31, 48 h, read-out: Activity
CAKI-1 = assay: Growth inhibition of human CAKI-1 cells after 48 hrs by sulforhodamine B assay; details: CAKI-1, 48 h
[16] = read-out: LC50 (the source's name)
[17] = read-out: pLC50 (the source's name) (converted)

**Q.** Which results are given for Cc1ccc(S(=O)(=O)N2C/C(=C\c3cc(F)cc(F)c3)C(=O)/C(=C/c3cc(F)cc(F)c3)C2)cc1?
**A.** GI50 (SN12C): 0.342 µM; TGI (SN12C): 1.31 µM; CC50 (SN12C; [16]): 4.26 µM; growth at 100 µM (SK-OV-3): -68%; growth at 0.1 µM (NCI-H23): 100%; growth at 0.1 µM (SW-620): 42%; GI50 [1]: 0.439 µM; TGI [1]: 10.1 µM; CC50 [1, 16]: 76.7 µM; growth at 0.1 µM (U-251): 80%; GI50 [2]: 0.301 µM; TGI [2]: 1.77 µM; CC50 [2, 16]: 16.3 µM; GI50 (HOP-62): 2.04 µM; TGI (HOP-62): 4.64 µM; CC50 (HOP-62; [16]): 11.9 µM; growth at 0.1 µM (786-0): 104%; GI50 (HL-60(TB) [3]): 0.288 µM; growth at 0.01 µM (HL-60(TB) [3]; read-out: Activity): 116%; CC50 (HL-60(TB) [3]; [17]): > 100 µM; TGI (HL-60(TB) [3]; read-out: pTGI (converted)): 1.74 µM; growth at 100 µM (M14): -86%; GI50 [4]: 0.437 µM; LC50 [4]: 75.9 µM; growth at 0.01 µM ([4]; read-out: Activity): 104%; TGI ([4]; read-out: pTGI (converted)): 10.2 µM; growth at 100 µM [5]: -90%; growth at 1 µM [6]: 19%; GI50 (SK-MEL-5): 0.288 µM; growth at 0.01 µM (SK-MEL-5; read-out: Activity): 98%; CC50 (SK-MEL-5; [17]): 3.63 µM; TGI (SK-MEL-5; read-out: pTGI (converted)): 1.07 µM; growth at 100 µM [7]: -27%; growth at 1 µM [8]: 49%; GI50 (HCT-116): 0.209 µM; TGI (HCT-116): 0.543 µM; CC50 (HCT-116; [16]): 1.94 µM; growth at 1 µM (HL-60(TB) [9]): 4%; growth at 100 µM (SNB-75): -86%; GI50 (RPMI-8226): 0.0372 µM; LC50 (RPMI-8226): 93.8 µM; TGI (RPMI-8226): 0.331 µM; GI50 (DU-145): 1.24 µM; TGI (DU-145): 3.08 µM; CC50 (DU-145; [16]): 7.62 µM; GI50 (A549): 2.88 µM; LC50 (A549): > 100 µM; growth at 0.01 µM (A549; read-out: Activity): 94%; TGI (A549; read-out: pTGI (converted)): 14.8 µM; growth at 100 µM (ACHN): -94%; GI50 (NCI-H322M): 4.7 µM; TGI (NCI-H322M): 22.8 µM; CC50 (NCI-H322M; [16]): > 100 µM; GI50 [10]: 0.34 µM; LC50 [10]: 3.52 µM; TGI [10]: 0.931 µM; growth at 0.1 µM [11]: 80%; growth at 0.1 µM [12]: 93%; GI50 (MCF7): 0.175 µM; TGI (MCF7): 1.45 µM; CC50 (MCF7; [16]): 6.88 µM; GI50 [13]: 0.723 µM; TGI [13]: 2.14 µM; CC50 [13, 16]: 5.13 µM; GI50 [14]: 0.468 µM; LC50 [14]: 15.8 µM; growth at 0.01 µM ([14]; read-out: Activity): 92%; TGI ([14]; read-out: pTGI (converted)): 2.51 µM; growth at 0.1 µM [15]: 94%; GI50 (CAKI-1): 0.365 µM; TGI (CAKI-1): 2.43 µM; CC50 (CAKI-1; [16]): 61.9 µM
